Assay [1] relates to E. coli #311. The assay is described as follows: In vivo activity (oral, iv; ED50) against E. coli in mice. The conditions noted are these: Escherichia coli. The source says: . […] Smith and E. Coli #311 in mammals.
Results of the tests (MIC, oral and IV) are list in Table 7.

Assay [2] has as its system Salmonella spp. GC 235. The assay is described as follows: MIC, broth microdilution. The conditions noted are these: Salmonella. Background: Dilution methods test growth across graded concentrations, often in twofold steps.
Assay [3] deals with Salmonella spp. GC 566. Kind of assay: MIC, broth microdilution. The conditions noted are these: Salmonella.
Procedure: (§1) Antimicrobial susceptibility testing. The in vitro activities of the antibiotics are determined by the broth microdilution method as recommended by the National Committee for Clinical Laboratory Standards (NCCLS) (1). Mueller-Hinton II broth (MHBII)(BBL Cockeysville, Md.) is the medium employed in the testing procedures. Microtiter plates containing serial dilutions of each antimicrobial agent are inoculated with each organism to yield the appropriate density (10^5 CFU/ml) in a 100 μl final volume. The plates are incubated for 18-22 hours at 35° C. in ambient air.
(§2) Presented in Tables I-XIII are representative compounds of Formula I which were evaluated against a panel of 40 selected gram-positive and gram-negative bacteria strains by pre-incubation in water, mouse serum or human serum. Representative compounds were first incubated in mouse serum for an hour prior to the in vitro testing against a panel of selected gram-positive and gram-negative bacteria strains. All compounds were also pre-incubated in water for an hour prior to testing as control. Representative compounds of Formula I were incubated in human serum prior to MIC determination.
The subject of assay [4] is S. cholerasius GC 1355. Kind of assay: MIC, broth microdilution.
Procedure: as §1, §2
The test system of assay [5] is Staph. aureus Smith. The assay is described as follows: In vitro activity (MIC) against Staph. aureus Smith. It counts as cell-based. The conditions noted are these: Staphylococcus aureus.
For assay [6], the system named is E. coli. The assay is described as follows: In vitro activity (MIC) against E. coli (Table 7). It counts as cell-based. The conditions noted are these: Escherichia coli.
Setting [7] is: single intravenous dose (SIV), read-out: ED50 E. coli #311 SIV.
Where [8] appears, read: single oral dose (SOD), read-out: ED50 E. coli #311 SOD.
Where [9] appears, read: SPP.GC235, Salmonella spp. GC 235, Mouse Serum pre-incubation.
Where [10] appears, read: SPP.GC235, Salmonella spp. GC 235, Water pre-incubation.
[11] abbreviates: SPP.GC566, Salmonella spp. GC 566, Mouse Serum pre-incubation.
Where [12] appears, read: SPP.GC566, Salmonella spp. GC 566, Water pre-incubation.
Setting [13] is: S. cholerasius GC 1355, Mouse Serum pre-incubation.
Setting [14] is: S. cholerasius GC 1355, Water pre-incubation.
Where [15] appears, read: single intravenous dose, mice, Table 7, read-out: ED50 SIV (E. coli).
Where [16] appears, read: single oral dose, mice, Table 7, read-out: ED50 SOD (E. coli).
Where [17] appears, read: SPP.GC235, pre-incubation in human serum.
The mark [18] stands for this setting: SPP.GC235, pre-incubation in mouse serum.
Where [19] appears, read: SPP.GC235, pre-incubation in water.
The mark [20] stands for this setting: SPP.GC566, pre-incubation in human serum.
Where [21] appears, read: SPP.GC566, pre-incubation in mouse serum.
[22] abbreviates: SPP.GC566, pre-incubation in water.

Values after ≈ are worked out from the molar mass of the structure shown. Like-named read-outs stand apart in the source and are kept apart here.

The ED50 is the dose at which the effect has come halfway, by size or by number of responders. As a reminder, the MIC is the least concentration at which growth counts as inhibited. Low readings indicate inhibition by little substance, high ones a need for much substance. As to `CCCCN(CC(=O)Nc1cc(N(C)C)c2c(c1O)C(=O)C1=C(O)[C@]3(O)C(=O)C(C(N)=O)=C(O)[C@@H](N(C)C)[C@@H]3C[C@@H]1C2)C(=O)OCOC(=O)c1ccc(F)cc1` [Example 4, ({[(2-{[(5aR,6aS,7S,10aS)-9-(aminocarbonyl)-4,7-bis(dimethylamino)-1,8,10a,11-tetrahydroxy-10,12-dioxo-5,5a,6,6a,7,10,10a,12-octahydrotetracen-2-yl]amino}-2-oxoethyl)(butyl)amino]carbonyl}oxy)methyl 4-fluorobenzoate], the values for the ED50 in assay [1] (setting [7]) and in assay [1] (setting [8]) were > 2 mg/kg and > 32 mg/kg, respectively. For the same compound, the minimum inhibitory concentration (MIC) in assay [2] (setting [9]) is 2 µg/mL (≈ 2.56 µM); in assay [2] (setting [10]) it was > 64 µg/mL; in assay [3] (setting [11]) it was 4 µg/mL (≈ 5.12 µM); in assay [3] (setting [12]) it was > 64 µg/mL; in assay [4] (setting [13]) it was 8 µg/mL (≈ 10.2 µM); in assay [4] (setting [14]) it was > 64 µg/mL.
Turning to `CN(C)c1cc(NC(=O)CN(C(=O)OCOC(=O)CC(C)(C)C)C(C)(C)C)c(O)c2c1C[C@H]1C[C@H]3[C@H](N(C)C)C(O)=C(C(N)=O)C(=O)[C@@]3(O)C(O)=C1C2=O` [Example 42, ({[(2-{[(5aR,6aS,7S,10aS)-9-(aminocarbonyl)-4,7-bis(dimethylamino)-1,8,10a,11-tetrahydroxy-10,12-dioxo-5,5a,6,6a,7,10,10a,12-octahydrotetracen-2-yl]amino}-2-oxoethyl)(tert-butyl)amino]carbonyl}oxy)methyl 3,3-dimethylbutanoate], the 50% effective dose (ED50) in assay [1] (setting [7]) was determined as 3.1 mg/kg; in assay [1] (setting [15]), 3.1 mg/kg; in assay [1] (setting [8]), 30.3 mg/kg; in assay [1] (setting [16]), 30.3 mg/kg. Also, the results for the MIC in assay [5] (Table 6) and in assay [6] were 8 µg/mL (≈ 10.6 µM) and > 64 µg/mL, respectively.
For the compound `CN(C)c1cc(NC(=O)CN(C(=O)OCOC(=O)c2ccc(F)cc2)C(C)(C)C)c(O)c2c1C[C@H]1C[C@H]3[C@H](N(C)C)C(O)=C(C(N)=O)C(=O)[C@@]3(O)C(O)=C1C2=O` [Example 52, ({[(2-{[(5aR,6aS,7S,10aS)-9-(aminocarbonyl)-4,7-bis(dimethylamino)-1,8,10a,11-tetrahydroxy-10,12-dioxo-5,5a,6,6a,7,10,10a,12-octahydrotetracen-2-yl]amino}-2-oxoethyl)(tert-butyl)amino]carbonyl}oxy)methyl 4-fluorobenzoate], the ED50 in assay [1] (setting [7]) stood at 3.78 mg/kg; in assay [1] (setting [15]), 3.78 mg/kg; in assay [1] (setting [8]), 43.7 mg/kg; in assay [1] (setting [16]), 43.7 mg/kg. Besides, the MIC in assay [5] (Table 6) was 2 µg/mL (≈ 2.56 µM); in assay [6], 8 µg/mL (≈ 10.2 µM).
As to `CCCCCCC(=O)OCOC(=O)N(CC(=O)Nc1cc(N(C)C)c2c(c1O)C(=O)C1=C(O)[C@]3(O)C(=O)C(C(N)=O)=C(O)[C@@H](N(C)C)[C@@H]3C[C@@H]1C2)C(C)(C)C` [Example 48, ({[(2-{[(5aR,6aS,7S,10aS)-9-(aminocarbonyl)-4,7-bis(dimethylamino)-1,8,10a,11-tetrahydroxy-10,12-dioxo-5,5a,6,6a,7,10,10a,12-octahydrotetracen-2-yl]amino}-2-oxoethyl)(tert-butyl)amino]carbonyl}oxy)methyl heptanoate], the median effective dose (ED50) was found to be 1.7 mg/kg in assay [1] (setting [7]), 1.7 mg/kg in assay [1] (setting [15]), 29.8 mg/kg in assay [1] (setting [8]) and 29.8 mg/kg in assay [1] (setting [16]). The MIC is 0.25 µg/mL (≈ 0.324 µM) in assay [5] (Table 6) and > 64 µg/mL in assay [6].
On to `Cc1ccc(C(=O)OCOC(=O)N(CC(=O)Nc2cc(N(C)C)c3c(c2O)C(=O)C2=C(O)[C@]4(O)C(=O)C(C(N)=O)=C(O)[C@@H](N(C)C)[C@@H]4C[C@@H]2C3)C(C)(C)C)cc1` [Example 47], for which the ED50 in assay [1] (setting [7]) was 3.17 mg/kg; in assay [1] (setting [8]), > 64 mg/kg. This compound showed a minimum inhibitory concentration (MIC) in assay [5] (Table 6) of 4 µg/mL (≈ 5.14 µM).
With `CCCN(CC(=O)Nc1cc(N(C)C)c2c(c1O)C(=O)C1=C(O)[C@]3(O)C(=O)C(C(N)=O)=C(O)[C@@H](N(C)C)[C@@H]3C[C@@H]1C2)C(=O)OCOC(=O)c1ccc(C(C)(C)C)cc1` [Example 28, ({[(2-{[(5aR,6aS,7S,10aS)-9-(aminocarbonyl)-4,7-bis(dimethylamino)-1,8,10a,11-tetrahydroxy-10,12-dioxo-5,5a,6,6a,7,10,10a,12-octahydrotetracen-2-yl]amino}-2-oxoethyl)(propyl)amino]carbonyl}oxy)methyl 4-tert-butylbenzoate], the median effective dose (ED50) in assay [1] (setting [7]) was > 2 mg/kg; in assay [1] (setting [8]) it was > 32 mg/kg. Further, the MIC in assay [5] (Table 8) was 32 µg/mL (≈ 39.7 µM).
Turning to `CCCCC(=O)OCOC(=O)N(CC(=O)Nc1cc(N(C)C)c2c(c1O)C(=O)C1=C(O)[C@]3(O)C(=O)C(C(N)=O)=C(O)[C@@H](N(C)C)[C@@H]3C[C@@H]1C2)C(C)(C)C` [Example 61, ({[(2-{[(5aR,6aS,7S,10aS)-9-(aminocarbonyl)-4,7-bis(dimethylamino)-1,8,10a,11-tetrahydroxy-10,12-dioxo-5,5a,6,6a,7,10,10a,12-octahydrotetracen-2-yl]amino}-2-oxoethyl)(tert-butyl)amino]carbonyl}oxy)methyl pentanoate], the ED50 was 2 to 4 mg/kg in assay [1] (setting [7]) and > 32 mg/kg in assay [1] (setting [8]). Moreover, the MIC is 16 µg/mL (≈ 21.5 µM) in assay [2] (setting [17]); 1 µg/mL (≈ 1.34 µM) in assay [2] (setting [18]); > 64 µg/mL in assay [2] (setting [19]); 32 µg/mL (≈ 43 µM) in assay [3] (setting [20]); 1 µg/mL (≈ 1.34 µM) in assay [3] (setting [21]); > 64 µg/mL in assay [3] (setting [22]). Besides, the results for the MIC in assay [4] (pre-incubation in human serum), in assay [4] (pre-incubation in mouse serum) and in assay [4] (pre-incubation in water) were 64 µg/mL (≈ 86 µM), 2 µg/mL (≈ 2.69 µM) and > 64 µg/mL, respectively.
With `CN(C)c1cc(NC(=O)CN(C(=O)OCOC(=O)C2CCC2)C(C)(C)C)c(O)c2c1C[C@H]1C[C@H]3[C@H](N(C)C)C(O)=C(C(N)=O)C(=O)[C@@]3(O)C(O)=C1C2=O` [Example 62, ({[(2-{[(5aR,6aS,7S,10aS)-9-(aminocarbonyl)-4,7-bis(dimethylamino)-1,8,10a,11-tetrahydroxy-10,12-dioxo-5,5a,6,6a,7,10,10a,12-octahydrotetracen-2-yl]amino}-2-oxoethyl)(tert-butyl)amino]carbonyl}oxy)methyl cyclobutanecarboxylate], the median effective dose (ED50) in assay [1] (setting [7]) was 4 to 8 mg/kg; in assay [1] (setting [8]), > 32 mg/kg. Besides, the MIC in assay [2] (setting [17]) is 8 µg/mL (≈ 10.8 µM); in assay [2] (setting [18]), 1 µg/mL (≈ 1.35 µM); in assay [2] (setting [19]), > 64 µg/mL; in assay [3] (setting [20]), 16 µg/mL (≈ 21.6 µM); in assay [3] (setting [21]), 1 µg/mL (≈ 1.35 µM); in assay [3] (setting [22]), > 64 µg/mL. In addition, the MIC in assay [4] (pre-incubation in human serum) was 32 µg/mL (≈ 43.1 µM); in assay [4] (pre-incubation in mouse serum), 2 µg/mL (≈ 2.7 µM); in assay [4] (pre-incubation in water), > 64 µg/mL.
For the compound `CCCN(CC(=O)Nc1cc(N(C)C)c2c(c1O)C(=O)C1=C(O)[C@]3(O)C(=O)C(C(N)=O)=C(O)[C@@H](N(C)C)[C@@H]3C[C@@H]1C2)C(=O)OCOC(=O)c1cc(C)cc(C)c1` [Example 26, ({[(2-{[(5aR,6aS,7S,10aS)-9-(aminocarbonyl)-4,7-bis(dimethylamino)-1,8,10a,11-tetrahydroxy-10,12-dioxo-5,5a,6,6a,7,10,10a,12-octahydrotetracen-2-yl]amino}-2-oxoethyl)(propyl)amino]carbonyl}oxy)methyl 3,5-dimethylbenzoate], in assay [5] (Table 8), 0.5 µg/mL (≈ 0.643 µM) was the least that counted as inhibitory (MIC).
On to `CN(C)c1cc(NC(=O)CN(C(=O)OCOC(=O)CCC2CCCCC2)C(C)(C)C)c(O)c2c1C[C@H]1C[C@H]3[C@H](N(C)C)C(O)=C(C(N)=O)C(=O)[C@@]3(O)C(O)=C1C2=O` [Example 63, ({[(2-{[(5aR,6aS,7S,10aS)-9-(aminocarbonyl)-4,7-bis(dimethylamino)-1,8,10a,11-tetrahydroxy-10,12-dioxo-5,5a,6,6a,7,10,10a,12-octahydrotetracen-2-yl]amino}-2-oxoethyl)(tert-butyl)amino]carbonyl}oxy)methyl 3-cyclohexylpropanoate], for which the ED50 was 4 to 8 mg/kg in assay [1] (setting [7]) and > 32 mg/kg in assay [1] (setting [8]). In addition, the MIC is > 64 µg/mL in assay [2] (setting [17]); 1 µg/mL (≈ 1.25 µM) in assay [2] (setting [18]); > 64 µg/mL in assay [2] (setting [19]); > 64 µg/mL in assay [3] (setting [20]); 1 µg/mL (≈ 1.25 µM) in assay [3] (setting [21]); > 64 µg/mL in assay [3] (setting [22]). Further, the values for the MIC in assay [4] (pre-incubation in human serum), in assay [4] (pre-incubation in mouse serum) and in assay [4] (pre-incubation in water) were > 64 µg/mL, 2 µg/mL (≈ 2.51 µM) and > 64 µg/mL, respectively.
Take `CCCN(CC(=O)Nc1cc(N(C)C)c2c(c1O)C(=O)C1=C(O)[C@]3(O)C(=O)C(C(N)=O)=C(O)[C@@H](N(C)C)[C@@H]3C[C@@H]1C2)C(=O)OCOC(=O)C1CCC1` [Example 7, ({[(2-{[(5aR,6aS,7S,10aS)-9-(aminocarbonyl)-4,7-bis(dimethylamino)-1,8,10a,11-tetrahydroxy-10,12-dioxo-5,5a,6,6a,7,10,10a,12-octahydrotetracen-2-yl]amino}-2-oxoethyl)(propyl)amino]carbonyl}oxy)methyl cyclobutanecarboxylate]: the minimal inhibitory concentration (MIC) in assay [2] (setting [9]) was 2 µg/mL (≈ 2.75 µM); in assay [2] (setting [10]) it was 8 µg/mL (≈ 11 µM); in assay [3] (setting [11]), 1 µg/mL (≈ 1.37 µM); in assay [3] (setting [12]), 16 µg/mL (≈ 22 µM); in assay [4] (setting [13]) it was 16 µg/mL (≈ 22 µM); in assay [4] (setting [14]) it was > 64 µg/mL.
